Measured values reported in US20080188490A1, “Acetylene Derivatives” (priority 2005, published 2008).
Where a name gives a salt, the structure may show the parent alone. Blank lines part the entries; values can stand above or below the compound they belong to.

Assays:
hmGluR5 = target: T1, hmGluR5 (Homo sapiens, UniProt P41594); experiment: inhibition of quisqualate-induced inositol phosphate turnover in hmGluR5 expressing cells; type: cell-based; settings: agonist quisqualate, read-out: IC50 concentration, inhibition of quisqualate-induced inositol phosphate turnover
T1 construct: expressed in transfected cells
T1 sequence (P41594 21-1180 isoform P41594-2 limits assumed): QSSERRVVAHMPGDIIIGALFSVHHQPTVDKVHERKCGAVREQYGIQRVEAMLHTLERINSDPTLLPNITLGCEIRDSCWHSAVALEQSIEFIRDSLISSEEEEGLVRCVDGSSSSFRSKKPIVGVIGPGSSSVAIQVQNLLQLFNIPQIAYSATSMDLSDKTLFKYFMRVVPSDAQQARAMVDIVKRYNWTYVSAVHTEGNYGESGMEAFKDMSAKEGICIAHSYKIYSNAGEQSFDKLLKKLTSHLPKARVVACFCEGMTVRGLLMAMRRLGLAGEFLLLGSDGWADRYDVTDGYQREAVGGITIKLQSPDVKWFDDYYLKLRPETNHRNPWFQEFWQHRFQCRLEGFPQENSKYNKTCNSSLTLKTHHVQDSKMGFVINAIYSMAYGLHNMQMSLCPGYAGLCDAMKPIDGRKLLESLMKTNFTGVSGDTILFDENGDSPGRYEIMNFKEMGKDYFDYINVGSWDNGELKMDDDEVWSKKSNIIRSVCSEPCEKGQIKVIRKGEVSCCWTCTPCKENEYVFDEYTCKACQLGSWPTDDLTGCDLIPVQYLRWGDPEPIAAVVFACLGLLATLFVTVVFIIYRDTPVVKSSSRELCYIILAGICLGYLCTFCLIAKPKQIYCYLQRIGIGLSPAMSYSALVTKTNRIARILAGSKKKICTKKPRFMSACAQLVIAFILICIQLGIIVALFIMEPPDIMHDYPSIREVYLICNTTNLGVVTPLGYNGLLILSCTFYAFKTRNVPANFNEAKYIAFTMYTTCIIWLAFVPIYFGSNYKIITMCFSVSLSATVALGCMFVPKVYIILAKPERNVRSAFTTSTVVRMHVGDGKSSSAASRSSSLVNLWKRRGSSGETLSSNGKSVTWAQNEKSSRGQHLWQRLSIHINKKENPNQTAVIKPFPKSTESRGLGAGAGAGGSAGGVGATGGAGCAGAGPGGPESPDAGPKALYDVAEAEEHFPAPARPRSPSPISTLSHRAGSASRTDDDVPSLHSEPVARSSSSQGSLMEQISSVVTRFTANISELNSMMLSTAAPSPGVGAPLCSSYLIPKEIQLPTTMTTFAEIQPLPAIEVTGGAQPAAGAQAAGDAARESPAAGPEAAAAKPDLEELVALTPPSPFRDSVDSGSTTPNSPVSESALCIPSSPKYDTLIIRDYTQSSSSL
Source text: This can be determined in vitro for example at recombinant human metabotropic glutamate receptors, especially PLC-coupled subtypes thereof such as mGluR5, using different procedures like, for example, measurement of the inhibition of the agonist induced elevation of intracellular Ca^2+ concentration in accordance with L. P. Daggett et al., Neuropharm. Vol. 34, pages 871-886 (1995), P. J. Flor et al., J. Neurochem. Vol. 67, pages 58-63 (1996) or by determination to what extent the agonist induced elevation of the inositol phosphate turnover is inhibited as described by T. Knoepfel et al., Eur. J. Pharmacol. Vol. 288, pages 389-392 (1994), L. P. Daggett et al., Neuropharm. Vol. 67, pages 58-63 (1996) and references cited therein. Isolation and expression of human mGluR subtypes are described in U.S. Pat. No. 5,521,297. Selected agents of the invention show IC50 values for the inhibition of the agonist (e.g. glutamate or quisqualate) induced elevation of intracellular Ca2+ concentration or the agonist (e.g. glutamate or quisqualate) induced inositol phosphate turnover, measured in recombinant cells expressing hmGluR5a of about 1nM to about 50 μM.

[1] = test system: stress-induced hyperthermia; experiment: stress-induced hyperthermia in mice; type: in vivo; settings: control hyperthermia 0.98±0.08° C.
Experimental: A. Lecci et al., Psychopharmacol. 101, 255-261]. At doses of about 0.1 to about 30 mg/kg p.o., selected agents of the invention reverse the stress-induced hyperthermia.
With (±)-(1R,3R)-3-(4-Chloro-phenylamino)-1-(3-chloro-phenylethynyl)-cyclohexanol, a stress-induced hyperthermia of 0.98±0.08° C. was reduced to 0.66±0.06° C. at 1 mg/kg p.o., to […] at 3 mg/kg p.o.; to 0.58±0.06° C. at 10 mg/kg p.o. and to 0.33±0.04° C. at 30 mg/kg p.o. (p<0.05; p<0.0011; p<0.01; p<0.001 respectively).

IC50 (hmGluR5): 1600 nM
SMILES: O[C@]1(C#Cc2cccc(Cl)c2)CCC[C@@H](Nc2ccc(Cl)cc2)C1 (racemic) [Example 1, (±)-(1R,3R)-3-(4-Chloro-phenylamino)-1-(3-chloro-phenylethynyl)-cyclohexanol]
stress-induced hyperthermia after treatment ([1]; 1 mg/kg p.o., p<0.05): 0.66±0.06 °C
stress-induced hyperthermia after treatment ([1]; 3 mg/kg p.o., p<0.0011): 0.43±10 °C
stress-induced hyperthermia after treatment ([1]; 10 mg/kg p.o., p<0.01): 0.58±0.06 °C
stress-induced hyperthermia after treatment ([1]; 30 mg/kg p.o., p<0.001): 0.33±0.04 °C

melting point: 153 to 163 °C
SMILES: O[C@]1(C#Cc2cccc(Cl)c2)CCC[C@@H](Nc2ccc(Cl)cc2)C1 (racemic) (as salt: hydrochloride) [Example 1, (±)-(1R,3R)-3-(4-Chloro-phenylamino)-1-(3-chloro-phenylethynyl)-cyclohexanol]

melting point: 83 to 88 °C
SMILES: O[C@@]1(C#Cc2cccc(Cl)c2)CCC[C@H](Nc2cc(-c3ccco3)[nH]n2)C1 [Example 1.26, (1S,3S)-1-(3-Chloro-phenylethynyl)-3-(5-furan-2-yl-1H-pyrazol-3-ylamino)-cyclohexanol]

melting point: 78 to 85 °C
SMILES: O[C@]1(C#Cc2cccc(Cl)c2)CCC[C@@H](Nc2cc(-c3ccco3)[nH]n2)C1 [Example 1.27, (1R,3R)-1-(3-Chloro-phenylethynyl)-3-(5-furan-2-yl-1H-pyrazol-3-ylamino)-cyclohexanol]
